The text below walks through data of US20080154102A1, “Intraoperative imaging methods” (priority 2006, published 2008).

Data set [1] in a line: Excretion to bile / clearance after injection. Format: in vivo.
Data set [2] relates to common bile duct. The data set can be described thus: Cholangiographic imaging with CW800-CA in pigs. Format: in vivo. The settings on record: for detection of beads inserted into CBD: 5 mL of 50 μM intravenously, beads 2.5 and 3.5 mm. As to the method: Based on the results obtained in rats, CW800-CA was chosen as the contrast agent for a large animal model approaching the size of human. In 7 anesthetized pigs, 5 mL of 100 μM CW800-CA (15 μg/kg total) was injected into portal vein (N=3), or 5 mL of 50 μM (N=2) or 100 μM (N=2) of CW800-CA (7.5, and 15 μg/kg total, respectively) were injected intravenously.
Beads of 2.5 or 3.5 mm in diameter were inserted into common bile duct via papilla vateri by duodenostomy (N=2) to simulate blockage of the CBD.

The subject of data set [3] is ureters. Description: Ureteral mapping in rats. Format: in vivo. As to the method:
In rats, ureters were visualized by intravenous injection of 50 μL of CW800 CA at 10, 20, 50 and 100 μM to quantify the best concentration for […]. Fluorescence intensities of ureters, kidney, and abdominal wall were measured at 3, 5, 10, 20, and 30 min following injection.

A short description of data set [4]: Metabolism of CW800-CA, HPLC/mass spectrometry of urine samples. Format: in vivo, pigs. The text has this: As described herein, ureter visualization can usually be obtained rapidly, even in a few minutes following injection. […] To clarify the point, an HPLC/mass spectrometry (using electrospray/time-of-flight (ES-TOF) method has been made.
Urine samples were collected from pigs (N=5), and analyzed. The dye usually can be pinpointed with a fluorescence detector equipped with ES-TOF mass spectrometry. Urine samples were first passed over a 6,000 Da cutoff gel-filtration column to remove contaminating proteins, and eluate less than 6,000 Da was analyzed on a C18 column. Buffer A was water, BioPlus (American Bioanalytical, Natick, Mass.) and Buffer B was acetonitrile. Using a gradient of 0 to 50% Buffer B over 30 min, urine samples were resolved on a 4.6×150 mm Symmetry C18 column (Waters) at a flow rate of 1 ml per minute with eluate fed into a Waters LCT ES-TOF mass spectrometer. Ion mode was set to electrospray negative (ES−), and cone and capillary voltages were set at 30 and 3000 (V), respectively. Desolvation and source temperature were set at 350, 140 (° C.), respectively. Data were analyzed with Masslynx (Waters) software.

Data set [5] concerns thoracic duct. The data set can be described thus: Thoracic duct visualization in the rat model. In kind it is in vivo. The following applies: 50 μL of 10 μM into mesenteric lymph node, 5 minutes. As to the method:
Additional experiments on thoracic duct visualization in the rat model were also performed using other NIR fluorescent agents.

The conditions of data set [6]: cited from earlier work.
Data set [7] is described as follows: Fluorescence spectrometry and fluorescence quantum yield. Format: physicochemical. The following applies: for Peak Fluorescence in PBS / Quantum Yield in PBS: Table 2. As for the experimental part:
(§1) Absorbance spectrometry was performed with a 1-cm path length quartz cuvette in a USB2000 fiber-optic spectrometer (Ocean Optics, Dunedin, Fla.). Fluorescence spectrometry was performed with a 1-cm path length, 1.5 mL disposable methacrylate cuvette (Fisher Scientific, Hampton, N.H.) in a HR2000 fiber-optic spectrometer, and CUV-ALL-UV four-way cuvette holder (Ocean Optics), using a 655 nm laser diode light source (OPCOM O.E. Inc., Xiamen, China) with maximum output less than 5 mW. Data acquisition was performed with a computer using an OOI-Base32 spectrometer operating software package (Ocean Optics). The spectral range of the USB2000-FL spectrometer was from 350 to 1000 nm with spectral resolution of 7.6 nm, and that of the HR2000 spectrometer was from 200 to 1100 nm with a spectral resolution of 6.7 nm.
Fluorescence intensity was measured in each solvent (PBS, FBS, and methanol) at each concentration of the dye to determine the effect of the methylene blue concentration and solvents on total fluorescence yield. Fluorescence quantum yields of methylene blue in PBS, FBS, and methanol were calculated using oxazine725 in ethylene glycol (quantum yield: 19%) as a calibration standard, under the conditions of matched absorbance of methylene blue in each solvent.

Data set [8] concerns common bile duct. Description: Cholangiographic imaging with ICG, IR-786 and CW800-CA in rats. Format: in vivo. As for the experimental part:
50 μL of 100 μM IR-786 or CW800-CA (15 μg/kg), or 1 mM ICG (150 μg/kg), was injected into portal vein in anesthetized rats. A simultaneous color video/NIR fluorescence intraoperative imaging system was employed for quantification of NIR fluorescence images. In another 32 rats, bile duct was visualized by intravenous (N=16) or portal vein injection (N=16) of 50 μL of CW800-CA at 10, 20, 50 and 100 μM to quantify the best concentration for bile duct imaging. Fluorescence intensities of bile duct, liver (right lobe), and pancreas were measured at 3, 5, 10, 20, and 30 min following injection.

A short description of data set [9]: Fluorescence spectrometry and fluorescence quantum yield. In kind it is physicochemical.
Data set [10] is described as follows: Absorbance spectrometry. In kind it is physicochemical. The following applies: for Peak Absorbance in PBS: Table 2. As to the method: as §1
Data set [11] concerns common bile duct, vasculature, coronary artery, myocardium. Description: Multi-wavelength fluorescence imaging with MB and ICG. The settings on record: pig. Format: in vivo, pigs. As for the experimental part: Therefore, MB was used to visualize CBD in an anesthetized pig, while ICG was used to visualize vasculature.
To evaluate the possibility of multi-wavelength fluorescent imaging, ICG and methylene blue were used.
1 mg/kg methylene blue IV injection was followed 30 min after by 0.03 mg/kg ICG IV injection. […] NIR camera exposure time was 100 msec.
Next, one of the diagonal branches of the coronary artery (D2) was clamped (white arrow), and then 1 mg/kg of methylene blue was injected intravenously; see the second row of images. Just after releasing the clamp, 0.03 mg/kg ICG was injected intravenously. […] The right-most image in the second row was created by merging the image of the coronary arteriography using methylene blue at clamping D2 and the image using ICG after declamping D2.

The test system of data set [12] is perforating arteries and veins. The data set can be described thus: NIR imaging of skin perforating vessels for flap surgery. Format: in vivo, Yorkshire pig. The following applies: 35 kg pig, 0.5 mg (14 μg/kg) intravenously. As for the experimental part:
To evaluate the usefulness of NIR agents for such methods, 0.5 mg (14 μg/kg) indocyanine green (ICG) was injected intravenously into a 35 kg Yorkshire pig, and the skin was imaged as described herein.

[13] abbreviates: rats, portal vein injection, listed as CW800CA.

“Also recorded” adds a separate entry of the source.

For the compound `CC1(C)C(/C=C/C2=C(Oc3ccc(S(=O)(=O)O)cc3)C(=C/C=C3/N(CCCCS(=O)(=O)O)c4ccc(S(=O)(=O)[O-])cc4C3(C)C)/CCC2)=[N+](CCCCCC(=O)O)c2ccc(S(=O)(=O)O)cc21` [CW800-CA], the “clearance after intravenous injection” value in [1] is “rapidly cleared by: 1) the liver and excreted into bile and 2) the kidneys and excreted into urine”. For the same compound, the “detection of beads inserted into CBD” value in [2] is listed as “detected completely in 2 of 2 pigs”. The “detection of beads inserted into CBD” value in data set [2] (listed as CW800CA) is “All beads could be detected perfectly in each trial”. Besides, the “time until visualization of the CBD after dye injection” value in data set [2] (portal vein or intravenous injection) was 7 to 10 min. The “visualization of ureters, in words” value in data set [3] (rat) was “excellent visualization of ureters”. Also, the “injected concentration showing the best SBR (ureter)” value in data set [3] (rats, 50 μL (7.5 μg/kg)) came out at 50 µM. In [3] (rats, every concentration), the “time of peak performance for ureter visualization” value is recorded as “approximately 10 minutes”. In data set [3] (rats, intravenous injection), the “time at which ureters could be identified” value amounted to 3 min. Moreover, in data set [4] (HPLC/ES-TOF mass spectrometry), the “form in which the dye is excreted” value was “excreted into the bile in a substantially unmetabolized form; also recorded: excreted into bile as an unmetabolized form”. The “fluorescence chromatograph after excretion into urine” value in data set [4] (HPLC/mass spectrometry) is given as “essentially a single peak with the expected mass spectrum”. The “thoracic duct in the fluorescence image” value in data set [5] is listed as “clearly visualized in the fluorescence image”. Also, in data set [6] (Ohnishi et al.), the “concentration above which significant quenching of fluorescence occurs” value was “above 10 μM”. Moreover, in data set [7] (in PBS), the “Peak Fluorescence in PBS” value came to 796 nm and the “Quantum Yield in PBS” value stood at 9%. In [8] (compared with ICG and IR-786), the “selectivity among three contrast agents for bile duct imaging” value is “most selective”. Further, the “dose required for CBD detection, portal vein injection” value in data set [8] (portal vein injection) lay within 3 to 15 µg/kg. In data set [8] (rats, 50 μL (7.5 μg/kg)), the “injected concentration showing the best SBR (CBD)” value was found to be 50 µM. Also, the “time of peak performance for CBD visualization” value in data set [8] (rats, every concentration) is on record as “approximately 10 minutes”. The “time at which CBD could be identified” value in data set [8] (rats, intravenous or portal injection) is 3 min. In [8] (rats, portal vein injection), the “dye stacking to the liver” value is recorded as “no significant dye stacking to the liver” and the “signal to background ratio (SBR) of CBD, in words” value is “excellent signal to background ratio”. Further, in data set [8] (setting [13]), the “dye stacking to the liver” value was “no dye stacking in the liver” and the “signal to background ratio (SBR) of CBD, in words” value is reported as “higher SBR than the other two”. Further, in [8] (systemic intravenous injection), the “dose required for CBD detection, systemic intravenous injection” value lay in the range of 7.5 to 15 µg/kg. In [9], the “emission of CW800-CA” value is “≈ 800 nm”. For the same compound, the “Peak Absorbance in PBS” value in data set [10] (in PBS) is 775 nm.

Take `CC1(C)C(/C=C/C=C/C=C/C=C2\N(CCCCS(=O)(=O)O)c3ccc4ccccc4c3C2(C)C)=[N+](CCCCS(=O)(=O)[O-])c2ccc3ccccc3c21` [ICG, indocyanine green]: the “clearance after intravenous injection” value in [1] is on record as “rapidly cleared from the blood by the liver, but is only inefficiently transported into bile”. In addition, the “thoracic duct in the fluorescence image” value in data set [5] is on record as “clearly visualized in the fluorescence image”. Further, in data set [7] (in FBS), the “Emission Wavelength Maximum, (FBS)” value is 811 nm and the “Fluorescence Quantum Yield, (FBS)” value was found to be 9%. The “ICG fluorescence relative to methylene blue fluorescence” value in data set [7] (in FBS, from extinction coefficient and quantum yield) is “about 8 times”. Also, in [7] (in PBS), the “Emission Wavelength Maximum, PBS” value was 806 nm; the “Fluorescence Quantum Yield, PBS” value worked out at 1%; the “Peak Fluorescence in PBS” value is 806 nm; the “Quantum Yield in PBS” value is listed as 1%. Besides, the “dye stacking to the liver” value in data set [8] (rats, portal vein injection) is recorded as “significant dye stacking to the liver”. In [10] (in FBS), the “Excitation Wavelength Maximum, (FBS)” value was 800 nm and the “Molar Extinction Coefficient, (FBS)” value was 168,000 M^−1cm^−1. The “molar extinction coefficient in FBS” value in data set [10] (in FBS, in M-1cm-1 (unit assumed)) was 168,000. Further, in [10] (in PBS), the “Excitation Wavelength Maximum, PBS” value turned out to be 779 nm and the “Peak Absorbance in PBS” value worked out at 779 nm. Moreover, the “distribution in myocardium after arteriography” value in [11] is reported as “evenly distributed over the entire myocardium”. The “detection of diagonal branch D2 after releasing the clamp” value in data set [11] (0.03 mg/kg intravenously) is on record as “detected clearly”. Also, the “structure shown in two-channel NIR imaging” value in data set [11] (ICG 800 nm, MB 700 nm) is “highlights blood vessels”. Moreover, in [12], the “identification of perforating arteries and veins” value is given as “can be identified”.

For the compound `CCN(CC)c1ccc2nc3ccc(=[N+](CC)CC)cc-3oc2c1.[O-][Cl+3]([O-])([O-])[O-]` [oxazine725], in data set [6] (in ethylene glycol), the “quantum yield of calibration standard” value is reported as 19%.

As to `CN1C(=CC=C2CCCC(C=CC3=[N+](C)c4ccccc4C3(C)C)=C2Cl)C(C)(C)c2ccccc21.[O-][Cl+3]([O-])([O-])[O-]` [IR-786], in data set [1], the “clearance after intravenous injection” value was “rapidly extracted into many tissues in the body, especially the liver, and is inefficiently transported into bile”. In [7] (in PBS), the “Peak Fluorescence in PBS” value is recorded as 803 nm and the “Quantum Yield in PBS” value is 3.3%. The “dye stacking to the liver” value in data set [8] (rats, portal vein injection) was “significant dye stacking to the liver”. The “Peak Absorbance in PBS” value in data set [10] (in PBS) came to 768 nm.
